Measured values as given in patent US11202795B2, “Means and methods for treatment of early-onset Parkinson's disease” (VIB VZW, priority 2014, dated 2021).
“Also recorded” adds a separate entry of the source.

Columns and labels:
PINK1 mutant flies = test: Flight assay of PINK1 mutant flies fed with FAS inhibitor; assay type: in vivo, Drosophila melanogaster
Protocol: FASN is a 273 kDa protein that produces palmitate, which is a precursor of fatty acids in a seven-step enzymatic reaction. FASN uses malonyl CoA and acetyl CoA as substrates. Several inhibitors of FASN function exist. Tests were performed to determine whether defective flight in PINK1 mutants could be pharmacologically rescued.
One-day-old adult flies were placed on molasses medium supplemented with 100 μM Cerulenin (Enzo Life Sciences) or 3 μM Irgasan (Sigma) (2.5% final ethanol concentration) or supplemented with 2.5% ethanol for control medium. […] To determine mitochondrial morphology, embryos were placed on molasses medium supplemented with 100 μM Cerulenin (2.5% final ethanol concentration) or supplemented with 2.5% ethanol for control medium and grown to the third instar larval stage. These third instar larvae were dissected and used for experiments (see below).
The flight assay was conducted on male flies using batches of five flies each. The flies were placed in an empty vial and gently tapped.

PINK−/− MEFs = test: Shotgun lipidomics of mitochondrial fractions (cardiolipin levels); assay type: cell-based, mice; details: compared to control MEFs
Text: Nonetheless, when FASN activity was lowered further in PINK1^−/− mutants, either by genetic or by pharmacological inhibition, the palmitate levels drop further. […] Only unsaturated phosphatidylglycerol (PG) is a good substrate for CL synthase (Bobyleva et al. (1997) Biochem. Mol. Biol. Int. 41:469-480) and high levels of palmitate shift the balance toward more saturated PG (Ostrander et al. (2001) J. Biol. Chem. 276:38061-38067). Opposite to this, it was confirmed that inhibition of FASN results in more unsaturated PG, while wondering if FASN inhibition results in increased CL levels.
(§1) Cells were treated with 10 μM Cerulenin (0.1% ethanol) or control medium supplemented with 0.1% ethanol.
Mitochondria were isolated and resuspended in ammonium bicarbonate buffer. Lipids were extracted and analyzed using shotgun mass spectrometry (lipotype). In short, using Chloroform and Methanol, lipids were extracted via a two-step lipid extraction process. These extracted lipids were then immediately subjected to mass spectrometric analysis. Lipid data were acquired on a hybrid quadrupole/ORBITRAP® mass spectrometer (Q-Exactive, Thermo-Fisher) equipped with an automated nanoflow electrospray ion source (TRIVERSA NANOMATE® Advion) in both positive and negative ion mode. LIPOTYPE® XPLORER® was used to identify lipids on unprocessed mass spectra.

[1] = system: control cells (PINK1+/+ MEF and L2134 controls); test: ATP levels of control cells treated with FASN inhibitor; assay type: cell-based
Protocol: Cells were treated with 10 μM Cerulenin (0.1% ethanol) or control medium supplemented with 0.1% ethanol. ATP levels were determined as previously described (Morais et al. (2014) Science 344:203-207) using an ATP determination kit (Invitrogen) according to supplier's protocol. Luminescence was measured on a luminometer (Biorad) and values were normalized to total protein content (Bradford method).

[2] = system: fibroblasts from patients carrying mutations in PINK1 (L1703); test: ATP levels of fibroblasts from patients carrying PINK1 mutations; assay type: cell-based, human; details: patient fibroblasts with PINK1 mutations (L1703), 10 μM Cerulenin vs untreated cells
Protocol: To directly test if further lowering FASN activity in PINK mutant cells rescues the mitochondrial dysfunction in these cells, ATP levels were tested. […] Thus, the inhibition of FASN with an inhibitor rescues in flies and cells isolated from mice and patients the PINK1-induced mitochondrial defects.
as §1
(§2) ATP levels were determined as previously described (Morais et al. (2014) Science 344:203-207) using an ATP determination kit (Invitrogen) according to supplier's protocol. Luminescence was measured on a luminometer (Biorad) and values were normalized to total protein content (Bradford method).

PINK1−/− MEFs = test: ATP levels of PINK1−/− MEFs treated with FASN inhibitor; assay type: cell-based, mice; details: 10 μM Cerulenin vs untreated cells
Protocol: To directly test if further lowering FASN activity in PINK mutant cells rescues the mitochondrial dysfunction in these cells, ATP levels were tested.
as §1, §2

SMILES | flight ability (PINK1 mutant flies; PINK1 mutant flies (B9), concentrations between 1-10 μM irgasan in food) | cardiolipin (CL) levels (PINK−/− MEFs) | ATP levels [1] | ATP levels [2] | ATP levels (PINK1−/− MEFs) | flight ability (PINK1 mutant flies; PINK1 mutant flies on food with different concentrations of cerulenin, flight assay every 24 hours)
Oc1cc(Cl)ccc1Oc1ccc(Cl)cc1Cl [irgasan] | clearly enhance the flight ability |  |  |  |  | 
C/C=C/C/C=C/CCC(=O)[C@H]1O[C@H]1C(N)=O [cerulenin] |  | almost completely restored the levels of all the CL species that were assessed back to control levels | did not have an effect | elevated ATP levels compared to untreated cells; also recorded: increased levels of ATP | elevated ATP levels compared to untreated cells; also recorded: increased levels of ATP | increased flight ability; also recorded: a dose-response effect was observed
